Measured values reported in PubChem BioAssay (NCI).
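Exposure lasted 48 hours, with cells grown in 96-well plates and compounds tested at five concentrations. TGI is the concentration that stops growth completely.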

Tests used:
Assay in all cases: NCI-60 cell line screen, 48 h
PC-3 prostate = system: PC-3 prostate
LOX IMVI melanoma = system: LOX IMVI melanoma
UACC-257 melanoma = system: UACC-257 melanoma
MALME-3M melanoma = system: MALME-3M melanoma
MDA-N = system: MDA-N
T-47D breast = system: T-47D breast
IGROV1 ovarian = system: IGROV1 ovarian
MDA-MB-231 breast = system: MDA-MB-231 breast
HL-60(TB) leukemia = system: HL-60(TB) leukemia
HCC-2998 colon = system: HCC-2998 colon
SW-620 colon = system: SW-620 colon
KM12 colon = system: KM12 colon
CCRF-CEM leukemia = system: CCRF-CEM leukemia
SF-268 CNS = system: SF-268 CNS
CAKI-1 renal = system: CAKI-1 renal
HOP-62 NSCLC = system: HOP-62 NSCLC
MOLT-4 leukemia = system: MOLT-4 leukemia
TK-10 renal = system: TK-10 renal
SNB-75 CNS = system: SNB-75 CNS
SK-OV-3 ovarian = system: SK-OV-3 ovarian
RXF 393 renal = system: RXF 393 renal
MCF7 breast = system: MCF7 breast
786-0 renal = system: 786-0 renal
NCI-H23 lung = system: NCI-H23 lung
K-562 leukemia = system: K-562 leukemia
HT29 colon = system: HT29 colon
SF-295 CNS = system: SF-295 CNS
DU-145 prostate = system: DU-145 prostate
SN12C renal = system: SN12C renal
M14 melanoma = system: M14 melanoma
SK-MEL-28 melanoma = system: SK-MEL-28 melanoma
SK-MEL-5 melanoma = system: SK-MEL-5 melanoma
A549 NSCLC = system: A549 NSCLC
RPMI-8226 leukemia = system: RPMI-8226 leukemia
HCT-15 colon = system: HCT-15 colon
EKVX NSCLC = system: EKVX NSCLC
OVCAR-8 ovarian = system: OVCAR-8 ovarian
UACC-62 melanoma = system: UACC-62 melanoma
SR leukemia = system: SR leukemia
MDA-MB-435 = system: MDA-MB-435
BT-549 breast = system: BT-549 breast
NCI/ADR-RES ovarian = system: NCI/ADR-RES ovarian
OVCAR-4 ovarian = system: OVCAR-4 ovarian
A498 renal = system: A498 renal
OVCAR-3 ovarian = system: OVCAR-3 ovarian
HS 578T breast = system: HS 578T breast
NCI-H226 lung = system: NCI-H226 lung
UO-31 renal = system: UO-31 renal
HCT-116 colon = system: HCT-116 colon
ACHN renal = system: ACHN renal
U251 CNS = system: U251 CNS
SF-539 CNS = system: SF-539 CNS
SNB-19 CNS = system: SNB-19 CNS
NCI-H460 lung = system: NCI-H460 lung
COLO 205 colon = system: COLO 205 colon
OVCAR-5 ovarian = system: OVCAR-5 ovarian
HOP-92 NSCLC = system: HOP-92 NSCLC
NCI-H522 lung = system: NCI-H522 lung

Structure (SMILES): CSc1nc(C)c(CCOC(C)=O)c(N=P(c2ccccc2)(c2ccccc2)c2ccccc2)n1
- TGI (PC-3 prostate): 9.37 µM
- TGI (LOX IMVI melanoma): > 10 µM
- TGI (UACC-257 melanoma): > 10 µM
- TGI (MALME-3M melanoma): > 10 µM
- TGI (MDA-N): > 10 µM
- TGI (T-47D breast): > 10 µM
- TGI (IGROV1 ovarian): > 10 µM
- TGI (MDA-MB-231 breast): > 10 µM
- TGI (HL-60(TB) leukemia): > 10 µM
- TGI (HCC-2998 colon): > 10 µM
- TGI (SW-620 colon): > 10 µM
- TGI (KM12 colon): > 10 µM
- TGI (CCRF-CEM leukemia): > 10 µM
- TGI (SF-268 CNS): > 10 µM
- TGI (CAKI-1 renal): > 10 µM
- TGI (HOP-62 NSCLC): > 10 µM
- TGI (MOLT-4 leukemia): 6.43 µM
- TGI (TK-10 renal): > 10 µM
- TGI (SNB-75 CNS): > 10 µM
- TGI (SK-OV-3 ovarian): > 10 µM
- TGI (RXF 393 renal): > 10 µM
- TGI (MCF7 breast): > 10 µM
- TGI (786-0 renal): > 10 µM
- TGI (NCI-H23 lung): > 10 µM
- TGI (K-562 leukemia): > 10 µM
- TGI (HT29 colon): > 10 µM
- TGI (SF-295 CNS): > 10 µM
- TGI (DU-145 prostate): > 10 µM
- TGI (SN12C renal): > 10 µM
- TGI (M14 melanoma): > 10 µM
- TGI (SK-MEL-28 melanoma): > 10 µM
- TGI (SK-MEL-5 melanoma): > 10 µM
- TGI (A549 NSCLC): > 10 µM
- TGI (RPMI-8226 leukemia): > 10 µM
- TGI (HCT-15 colon): > 10 µM
- TGI (EKVX NSCLC): > 10 µM
- TGI (OVCAR-8 ovarian): > 10 µM
- TGI (UACC-62 melanoma): > 10 µM
- TGI (SR leukemia): 7.83 µM

Structure (SMILES): COCCOCCOCCC(=O)NC1CC2CCC1(C)C2(C)C (centres undefined)
- TGI (PC-3 prostate): > 100 µM
- TGI (LOX IMVI melanoma): > 100 µM
- TGI (UACC-257 melanoma): > 100 µM
- TGI (MDA-MB-435): > 100 µM
- TGI (BT-549 breast): > 100 µM
- TGI (NCI/ADR-RES ovarian): > 100 µM
- TGI (OVCAR-4 ovarian): > 100 µM
- TGI (MALME-3M melanoma): > 100 µM
- TGI (MDA-N): > 100 µM
- TGI (IGROV1 ovarian): > 100 µM
- TGI (A498 renal): > 100 µM
- TGI (MDA-MB-231 breast): > 100 µM
- TGI (HL-60(TB) leukemia): > 100 µM
- TGI (HCC-2998 colon): > 100 µM
- TGI (SW-620 colon): > 100 µM
- TGI (KM12 colon): > 100 µM
- TGI (CCRF-CEM leukemia): > 100 µM
- TGI (SF-268 CNS): > 100 µM
- TGI (OVCAR-3 ovarian): > 100 µM
- TGI (CAKI-1 renal): > 100 µM
- TGI (HOP-62 NSCLC): > 100 µM
- TGI (MOLT-4 leukemia): > 100 µM
- TGI (HS 578T breast): > 100 µM
- TGI (TK-10 renal): > 100 µM
- TGI (NCI-H226 lung): > 100 µM
- TGI (SNB-75 CNS): > 100 µM
- TGI (SK-OV-3 ovarian): > 100 µM
- TGI (RXF 393 renal): > 100 µM
- TGI (UO-31 renal): > 100 µM
- TGI (MCF7 breast): > 100 µM
- TGI (786-0 renal): > 100 µM
- TGI (NCI-H23 lung): > 100 µM
- TGI (K-562 leukemia): > 100 µM
- TGI (HCT-116 colon): > 100 µM
- TGI (HT29 colon): > 100 µM
- TGI (SF-295 CNS): > 100 µM
- TGI (ACHN renal): > 100 µM
- TGI (DU-145 prostate): > 100 µM
- TGI (SN12C renal): > 100 µM
- TGI (U251 CNS): > 100 µM
- TGI (M14 melanoma): > 100 µM
- TGI (SF-539 CNS): > 100 µM
- TGI (SK-MEL-28 melanoma): > 100 µM
- TGI (SK-MEL-5 melanoma): > 100 µM
- TGI (A549 NSCLC): > 100 µM
- TGI (RPMI-8226 leukemia): > 100 µM
- TGI (HCT-15 colon): > 100 µM
- TGI (SNB-19 CNS): > 100 µM
- TGI (NCI-H460 lung): > 100 µM
- TGI (EKVX NSCLC): > 100 µM
- TGI (OVCAR-8 ovarian): > 100 µM
- TGI (UACC-62 melanoma): > 100 µM
- TGI (SR leukemia): > 100 µM
- TGI (COLO 205 colon): > 100 µM
- TGI (OVCAR-5 ovarian): > 100 µM

Structure (SMILES): NC(N)=N/N=C/c1c(-c2ccc(Cl)cc2)nc2sc(Cl)cn12
- TGI (PC-3 prostate): > 100 µM
- TGI (UACC-257 melanoma): 3.2 µM
- TGI (MDA-MB-435): 2.57 µM
- TGI (NCI/ADR-RES ovarian): 3.31 µM
- TGI (HOP-92 NSCLC): 3.17 µM
- TGI (OVCAR-4 ovarian): 2.18 µM
- TGI (MDA-N): 3.13 µM
- TGI (T-47D breast): 2.64 µM
- TGI (IGROV1 ovarian): 2.04 µM
- TGI (A498 renal): 3.17 µM
- TGI (MDA-MB-231 breast): 3.29 µM
- TGI (SW-620 colon): 2.28 µM
- TGI (KM12 colon): 2.2 µM
- TGI (OVCAR-3 ovarian): 2.88 µM
- TGI (CAKI-1 renal): 2.82 µM
- TGI (HOP-62 NSCLC): 3.25 µM
- TGI (TK-10 renal): 3.1 µM
- TGI (NCI-H226 lung): 3.36 µM
- TGI (SNB-75 CNS): 2.72 µM
- TGI (SK-OV-3 ovarian): 3.34 µM
- TGI (UO-31 renal): 3.1 µM
- TGI (NCI-H23 lung): 2.48 µM
- TGI (SF-295 CNS): 3.18 µM
- TGI (ACHN renal): > 100 µM
- TGI (DU-145 prostate): 3.37 µM
- TGI (NCI-H522 lung): 3.47 µM
- TGI (SF-539 CNS): 2.53 µM
- TGI (SK-MEL-28 melanoma): 3.21 µM
- TGI (SK-MEL-5 melanoma): 2.97 µM
- TGI (HCT-15 colon): 2.69 µM
- TGI (NCI-H460 lung): 3.21 µM
- TGI (OVCAR-8 ovarian): 2.53 µM
- TGI (UACC-62 melanoma): 3.25 µM
- TGI (COLO 205 colon): 2.12 µM
- TGI (OVCAR-5 ovarian): 3.1 µM
